Experimental data taken from the NIST ThermoML archive (doi:10.1021/je050183a).

Experiments:
[1] = xn = mol fraction of the nth substance listed; details: 101 kPa, Liquid; for viscosity: Capillary tube (Ostwald / Ubbelohde) method; for speed of sound: Linear variable-path acoustic interferometer; for mass density: Pycnometric method
[2] = refractive index (Na D-line) (dimensionless); xn = mol fraction of the nth substance listed; details: 298.15 K, 101 kPa, Liquid, Standard Abbe refractometry

CC1OC(C)OC(C)O1 (stereo unspecified) [2,4,6-trimethyl-1,3,5-trioxane] + CCOC(=O)OCC
[1]
Details	mass density, 288.15 K [kg/m3]	mass density, 298.15 K [kg/m3]	speed of sound, 288.15 K [m/s]	speed of sound, 298.15 K [m/s]	viscosity, 288.15 K [mPa·s]	viscosity, 298.15 K [mPa·s]
x1 = 0.0215	980.99	969.57	1224	1173.8	0.877	0.756
x1 = 0.0425	981.54	969.99	1222.6	1174.2	0.885	0.763
x1 = 0.0615	982.03	970.36	1221.4	1174.5	0.892	0.768
x1 = 0.0816	982.54	970.76	1220.3	1174.8	0.899	0.774
x1 = 0.1036	983.08	971.19	1219.1	1175	0.906	0.779
x1 = 0.1911	985.12	972.92	1215.7	1175.6	0.931	0.798
x1 = 0.317	987.74	975.41	1213.4	1175.3	0.959	0.819
x1 = 0.4272	989.8	977.57	1213.2	1174.4	0.985	0.836
x1 = 0.5162	991.35	979.28	1213.8	1173.5	1.011	0.854
x1 = 0.608	992.87	981	1214.8	1172.6	1.047	0.878
x1 = 0.7032	994.41	982.74	1215.7	1171.9	1.098	0.913
x1 = 0.7984	995.94	984.41	1216.2	1171.5	1.167	0.962
x1 = 0.8957	997.54	986.04	1216.7	1171.8	1.26	1.028
x1 = 1	999.69	988.35	1217.7	1174.5	1.374	1.107

[2]
Details	refractive index
x1 = 0.0215	1.3835
x1 = 0.0425	1.384
x1 = 0.0615	1.3844
x1 = 0.0816	1.3848
x1 = 0.1036	1.3853
x1 = 0.1911	1.3873
x1 = 0.317	1.3901
x1 = 0.4272	1.3926
x1 = 0.5162	1.3945
x1 = 0.608	1.3963
x1 = 0.7032	1.3982
x1 = 0.7984	1.3999
x1 = 0.8957	1.4015
x1 = 1	1.4029

CC1OC(C)OC(C)O1 (stereo unspecified) [2,4,6-trimethyl-1,3,5-trioxane] + COC(=O)OC
[1]
Details	mass density, 288.15 K [kg/m3]	mass density, 298.15 K [kg/m3]	speed of sound, 288.15 K [m/s]	speed of sound, 298.15 K [m/s]	viscosity, 288.15 K [mPa·s]	viscosity, 298.15 K [mPa·s]
x1 = 0.0204	1074.19	1060.99	1242.2	1197.4	0.66	0.59
x1 = 0.0409	1071.96	1058.89	1242.3	1197.3	0.673	0.6
x1 = 0.059	1070.03	1057.07	1242.4	1197.3	0.684	0.609
x1 = 0.0845	1067.35	1054.53	1242.4	1197	0.699	0.62
x1 = 0.1091	1064.81	1052.11	1242.3	1196.8	0.713	0.63
x1 = 0.2258	1053.37	1041.01	1240.4	1194.6	0.77	0.673
x1 = 0.3012	1046.5	1034.2	1238.4	1192.7	0.803	0.697
x1 = 0.3994	1038.14	1025.83	1235	1189.6	0.844	0.727
x1 = 0.494	1030.68	1018.35	1231.2	1186	0.887	0.757
x1 = 0.5906	1023.62	1011.31	1227.2	1182.3	0.936	0.793
x1 = 0.696	1016.52	1004.26	1223.1	1178.5	1.002	0.84
x1 = 0.808	1009.63	997.47	1219.3	1175.3	1.091	0.906
x1 = 0.9289	1002.87	991.2	1216.7	1173.1	1.214	0.998
x1 = 1	999.69	988.35	1217.7	1174.5	1.374	1.107

[2]
Details	refractive index
x1 = 0.0204	1.3673
x1 = 0.0409	1.3686
x1 = 0.059	1.3696
x1 = 0.0845	1.3711
x1 = 0.1091	1.3725
x1 = 0.2258	1.3786
x1 = 0.3012	1.382
x1 = 0.3994	1.386
x1 = 0.494	1.3894
x1 = 0.5906	1.3925
x1 = 0.696	1.3956
x1 = 0.808	1.3985
x1 = 0.9289	1.4014
x1 = 1	1.4029
